# Values joined by “and” are separate entries in the source; they are usually repeats but may differ in a detail not shown here. Equal values may be shown once. Toxic doses and inconclusive results are not listed.
# Tested on: L1210 leukemia ip in BDF1 mice, survival T/C
# Assay: NCI In Vivo Anticancer Drug Screen. Data for tumor model L1210 Leukemia (intraperitoneal) in B6D2F1 (BDF1) mice
# Conditions: endpoint: mean survival time, higher = longer survival
# Outline: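 Tumor cells were implanted, animals were treated, and survival was followed. The result divides the treated measurement by the vehicle-control measurement.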
# [1] = dose: 100.0 mg/kg/injection, schedule: Q01DX009 (ip), vehicle: saline with Tween-80
# [2] = dose: 200.0 mg/kg/injection, schedule: Q01DX009 (ip), vehicle: saline with Tween-80
# [3] = dose: 400.0 mg/kg/injection, schedule: Q01DX009 (ip), vehicle: saline with Tween-80
# [4] = dose: 100.0 mg/kg/injection, schedule: Q04DX003 (ip), vehicle: saline with Tween-80
# [5] = dose: 200.0 mg/kg/injection, schedule: Q04DX003 (ip), vehicle: saline with Tween-80
# [6] = dose: 400.0 mg/kg/injection, schedule: Q04DX003 (ip), vehicle: saline with Tween-80
# [7] = dose: 100.0 mg/kg/injection, schedule: Q04DX003 (ip), vehicle: Klucel (hydroxypropylcellulose) (HPC)
# [8] = dose: 200.0 mg/kg/injection, schedule: Q04DX003 (ip), vehicle: Klucel (hydroxypropylcellulose) (HPC)
smiles,measurement,setting,value
CCCCCCCc1ccc(N=Cc2ccc(OCCC)cc2)cc1,T/C,[1],100 % of control
same,T/C,[2],87 % of control
same,T/C,[3],86 % of control
O=C(CN1CC1)Nc1ccc(NC(=O)CN2CC2)cc1,T/C,"dose: 1.5 mg/kg/injection, schedule: Q01DX009 (ip), vehicle: carboxymethylcellulose (CMC)",116 % of control and 117 % of control
same,T/C,"dose: 7.3 mg/kg/injection, schedule: Q01DX001 (ip), vehicle: carboxymethylcellulose (CMC)",116 % of control
same,T/C,"dose: 11.0 mg/kg/injection, schedule: Q01DX009 (ip), vehicle: carboxymethylcellulose (CMC)",168 % of control
same,T/C,"dose: 11.1 mg/kg/injection, schedule: Q01DX009 (ip), vehicle: carboxymethylcellulose (CMC)",161 % of control
same,T/C,"dose: 16.6 mg/kg/injection, schedule: Q01DX009 (ip), vehicle: carboxymethylcellulose (CMC)",96 % of control and 211 % of control
same,T/C,"dose: 25.0 mg/kg/injection, schedule: Q01DX001 (ip), vehicle: carboxymethylcellulose (CMC)",152 % of control and 160 % of control
same,T/C,"dose: 25.0 mg/kg/injection, schedule: Q01DX009 (ip), vehicle: carboxymethylcellulose (CMC)",103 % of control
same,T/C,"dose: 37.5 mg/kg/injection, schedule: Q01DX001 (ip), vehicle: carboxymethylcellulose (CMC)",163 % of control
same,T/C,"dose: 50.0 mg/kg/injection, schedule: Q01DX001 (ip), vehicle: carboxymethylcellulose (CMC)",151 % of control
O=C1Nc2cccc3c2N(CCC3)C2=C1CCC2,T/C,"dose: 100.0 mg/kg/injection, schedule: Q04DX002 (ip), vehicle: Klucel (hydroxypropylcellulose) (HPC)",105 % of control
same,T/C,"dose: 200.0 mg/kg/injection, schedule: Q04DX002 (ip), vehicle: Klucel (hydroxypropylcellulose) (HPC)",105 % of control
same,T/C,"dose: 400.0 mg/kg/injection, schedule: Q04DX002 (ip), vehicle: Klucel (hydroxypropylcellulose) (HPC)",108 % of control
Nc1cc([N+](=O)[O-])cnc1NCCc1ccccc1,T/C,[4],97 % of control
same,T/C,[5],98 % of control
same,T/C,[6],104 % of control
CC(C)=CCC/C(C)=C/CN1C(=O)CCCC1=O,T/C,"dose: 100.0 mg/kg/injection, schedule: Q01DX001 (ip), vehicle: saline with Tween-80",104 % of control
same,T/C,"dose: 150.0 mg/kg/injection, schedule: Q04DX003 (ip), vehicle: saline with Tween-80",94 % of control
same,T/C,"dose: 200.0 mg/kg/injection, schedule: Q01DX001 (ip), vehicle: saline with Tween-80",97 % of control
same,T/C,"dose: 300.0 mg/kg/injection, schedule: Q04DX003 (ip), vehicle: saline with Tween-80",94 % of control
same,T/C,"dose: 400.0 mg/kg/injection, schedule: Q01DX001 (ip), vehicle: saline with Tween-80",93 % of control
same,T/C,"dose: 600.0 mg/kg/injection, schedule: Q04DX003 (ip), vehicle: saline with Tween-80",90 % of control
CCCCCCP(=O)(CCCCCC)CCCCCC (tested in a mixture with another compound),T/C,[1],100 % of control
same,T/C,[2],86 % of control
O=C1OC(=O)C2C3CC(C12)C1C2C=CC(C2)C31 (stereo not drawn),T/C,[4],91 % of control
same,T/C,[5],95 % of control
same,T/C,[6],103 % of control
Cc1cc(Cl)ccc1NC(=O)COc1ccc(Cl)cc1,T/C,"dose: 25.0 mg/kg/injection, schedule: Q01DX009 (ip), vehicle: Klucel (hydroxypropylcellulose) (HPC)",100 % of control
same,T/C,"dose: 50.0 mg/kg/injection, schedule: Q01DX009 (ip), vehicle: Klucel (hydroxypropylcellulose) (HPC)",90 % of control
same,T/C,"dose: 100.0 mg/kg/injection, schedule: Q01DX009 (ip), vehicle: Klucel (hydroxypropylcellulose) (HPC)",88 % of control
same,T/C,[7],104 % of control
same,T/C,[8],101 % of control
same,T/C,"dose: 400.0 mg/kg/injection, schedule: Q04DX003 (ip), vehicle: Klucel (hydroxypropylcellulose) (HPC)",92 % of control
COc1ccc(CCN=C2C3CC4CC(C3)CC2C4)cc1OC,T/C,"dose: 100.0 mg/kg/injection, schedule: Q01DX001 (ip), vehicle: saline",98 % of control
same,T/C,"dose: 200.0 mg/kg/injection, schedule: Q01DX001 (ip), vehicle: saline",98 % of control
same,T/C,"dose: 400.0 mg/kg/injection, schedule: Q01DX001 (ip), vehicle: saline",103 % of control
O=Nc1ccc(O)c2ncccc12,T/C,[7],92 % of control
same,T/C,[8],99 % of control
c1ccc2cc(Sc3ncnc4nc[nH]c34)ccc2c1,T/C,[1],97 % of control
same,T/C,[4],105 % of control
same,T/C,[2],103 % of control
same,T/C,[5],98 % of control
same,T/C,[3],97 % of control
same,T/C,[6],98 % of control
O=C(Nc1ccccc1)OC1CCC2CC21 (stereo not drawn),T/C,"dose: 50.0 mg/kg/injection, schedule: Q01DX009 (ip), vehicle: saline with Tween-80",91 % of control
same,T/C,[1],87 % of control

# From PubChem BioAssay AID248 (DTP/NCI, 2004)
